{
  "source": "paper PMC8694051",
  "about": "(Proceedings of the National Academy of Sciences of the …, 2021)",
  "key": {"[1]": {"target": "Factor Xa (Homo sapiens, UniProt P00742)", "sequence (P00742 235-488 limits assumed)": "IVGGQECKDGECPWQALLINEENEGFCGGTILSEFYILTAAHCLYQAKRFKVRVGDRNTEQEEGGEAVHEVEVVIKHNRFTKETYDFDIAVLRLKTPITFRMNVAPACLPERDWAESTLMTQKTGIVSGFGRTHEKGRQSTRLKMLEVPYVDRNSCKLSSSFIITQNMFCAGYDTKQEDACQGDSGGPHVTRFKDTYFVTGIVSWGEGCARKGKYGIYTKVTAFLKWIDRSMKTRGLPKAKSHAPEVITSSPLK", "sequence (P00742 41-179 partner limits assumed)": "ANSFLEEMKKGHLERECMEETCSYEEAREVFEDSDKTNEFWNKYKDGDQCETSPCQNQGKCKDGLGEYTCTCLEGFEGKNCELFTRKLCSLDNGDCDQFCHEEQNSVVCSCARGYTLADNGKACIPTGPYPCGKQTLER", "experiment": "Factor Xa enzyme inhibition (published assays)", "format": "biochemical"}, "[2]": {"experiment": "in vitro", "conditions": "human, plasma"}, "[3]": {"test_system": "wild-type SARS-CoV-2", "experiment": "microbe, parasite or virus in culture", "format": "cell-based", "conditions": "Severe acute respiratory syndrome coronavirus 2, Calu-3, 72 h, read-out: SARS-CoV-2 Wild-type Calu-3 IC50 (nM)"}, "[4]": {"experiment": "in vitro", "conditions": "mouse, plasma"}, "[5]": {"target": "Thrombin (Homo sapiens, UniProt P00734)", "experiment": "Thrombin enzyme inhibition (published assays)", "format": "biochemical"}, "[6]": {"target": "T1, HGFA (Homo sapiens, UniProt Q04756)", "T1 sequence (Q04756 373-655)": "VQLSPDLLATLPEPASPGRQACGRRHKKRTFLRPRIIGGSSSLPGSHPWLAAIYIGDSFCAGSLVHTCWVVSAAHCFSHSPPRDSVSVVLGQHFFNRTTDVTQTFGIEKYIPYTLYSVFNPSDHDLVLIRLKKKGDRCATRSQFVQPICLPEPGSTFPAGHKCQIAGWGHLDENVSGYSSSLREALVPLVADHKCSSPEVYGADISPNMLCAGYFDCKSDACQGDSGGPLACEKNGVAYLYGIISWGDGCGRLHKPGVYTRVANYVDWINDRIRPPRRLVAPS", "experiment": "HGFA enzyme inhibition (published assays)", "format": "biochemical"}, "[7]": {"target": "Chymase (Homo sapiens, UniProt P23946)", "sequence (P23946 22-247, species assumed)": "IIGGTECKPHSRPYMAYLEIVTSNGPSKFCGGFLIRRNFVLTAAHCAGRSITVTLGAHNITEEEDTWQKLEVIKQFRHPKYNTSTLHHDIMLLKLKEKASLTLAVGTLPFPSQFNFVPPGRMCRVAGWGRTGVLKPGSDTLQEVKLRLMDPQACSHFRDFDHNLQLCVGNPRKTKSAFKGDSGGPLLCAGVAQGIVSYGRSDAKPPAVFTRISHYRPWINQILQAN", "experiment": "Protease profiling panel, 10-dose IC50", "format": "biochemical"}, "[8]": {"target": "Cathepsin G (Homo sapiens, UniProt P08311)", "sequence (P08311 21-255, species assumed)": "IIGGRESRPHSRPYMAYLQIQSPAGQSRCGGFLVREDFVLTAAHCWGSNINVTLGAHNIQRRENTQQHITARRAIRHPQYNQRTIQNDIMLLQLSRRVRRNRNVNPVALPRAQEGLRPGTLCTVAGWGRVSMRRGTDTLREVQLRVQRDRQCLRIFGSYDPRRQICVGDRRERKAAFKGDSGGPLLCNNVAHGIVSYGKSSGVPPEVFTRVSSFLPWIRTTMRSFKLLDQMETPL", "experiment": "Protease profiling panel, 10-dose IC50", "format": "biochemical"}, "[9]": {"target": "Caspase 14 (Homo sapiens, UniProt P31944)", "sequence (P31944 6-242, species assumed)": "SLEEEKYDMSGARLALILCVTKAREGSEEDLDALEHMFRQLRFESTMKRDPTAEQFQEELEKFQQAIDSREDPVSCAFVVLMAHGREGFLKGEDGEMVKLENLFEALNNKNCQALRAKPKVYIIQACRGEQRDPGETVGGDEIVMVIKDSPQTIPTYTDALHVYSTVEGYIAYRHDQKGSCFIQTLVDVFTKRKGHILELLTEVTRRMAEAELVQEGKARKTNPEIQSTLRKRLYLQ", "experiment": "Protease profiling panel, 10-dose IC50", "format": "biochemical"}, "[10]": {"target": "FVIIa (Homo sapiens, UniProt P08709)", "sequence (P08709 213-466 limits assumed)": "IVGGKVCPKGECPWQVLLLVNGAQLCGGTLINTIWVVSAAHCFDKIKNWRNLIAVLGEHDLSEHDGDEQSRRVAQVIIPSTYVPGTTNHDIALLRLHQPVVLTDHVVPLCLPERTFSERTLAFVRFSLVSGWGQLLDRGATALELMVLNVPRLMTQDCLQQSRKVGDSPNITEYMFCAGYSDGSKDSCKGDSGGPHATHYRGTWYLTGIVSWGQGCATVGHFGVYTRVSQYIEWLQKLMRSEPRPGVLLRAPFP", "sequence (P08709 61-212 partner limits assumed)": "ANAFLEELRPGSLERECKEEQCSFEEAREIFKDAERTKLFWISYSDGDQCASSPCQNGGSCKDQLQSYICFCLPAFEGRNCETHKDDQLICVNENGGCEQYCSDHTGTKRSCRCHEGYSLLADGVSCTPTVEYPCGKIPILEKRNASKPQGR", "experiment": "Protease profiling panel, 10-dose IC50", "format": "biochemical"}, "[11]": {"test_system": "VSV-SARS-CoV-2-Spike protein Pseudotype virus", "experiment": "microbe, parasite or virus in culture", "format": "cell-based", "conditions": "Vesicular stomatitis virus, Calu-3, read-out: VSV-SARS-CoV-2 Calu-3 EC50 (nM)"}, "[12]": {"target": "T2, Matriptase (Homo sapiens, UniProt Q9Y5Y6)", "T2 sequence (Q9Y5Y6 1-855)": "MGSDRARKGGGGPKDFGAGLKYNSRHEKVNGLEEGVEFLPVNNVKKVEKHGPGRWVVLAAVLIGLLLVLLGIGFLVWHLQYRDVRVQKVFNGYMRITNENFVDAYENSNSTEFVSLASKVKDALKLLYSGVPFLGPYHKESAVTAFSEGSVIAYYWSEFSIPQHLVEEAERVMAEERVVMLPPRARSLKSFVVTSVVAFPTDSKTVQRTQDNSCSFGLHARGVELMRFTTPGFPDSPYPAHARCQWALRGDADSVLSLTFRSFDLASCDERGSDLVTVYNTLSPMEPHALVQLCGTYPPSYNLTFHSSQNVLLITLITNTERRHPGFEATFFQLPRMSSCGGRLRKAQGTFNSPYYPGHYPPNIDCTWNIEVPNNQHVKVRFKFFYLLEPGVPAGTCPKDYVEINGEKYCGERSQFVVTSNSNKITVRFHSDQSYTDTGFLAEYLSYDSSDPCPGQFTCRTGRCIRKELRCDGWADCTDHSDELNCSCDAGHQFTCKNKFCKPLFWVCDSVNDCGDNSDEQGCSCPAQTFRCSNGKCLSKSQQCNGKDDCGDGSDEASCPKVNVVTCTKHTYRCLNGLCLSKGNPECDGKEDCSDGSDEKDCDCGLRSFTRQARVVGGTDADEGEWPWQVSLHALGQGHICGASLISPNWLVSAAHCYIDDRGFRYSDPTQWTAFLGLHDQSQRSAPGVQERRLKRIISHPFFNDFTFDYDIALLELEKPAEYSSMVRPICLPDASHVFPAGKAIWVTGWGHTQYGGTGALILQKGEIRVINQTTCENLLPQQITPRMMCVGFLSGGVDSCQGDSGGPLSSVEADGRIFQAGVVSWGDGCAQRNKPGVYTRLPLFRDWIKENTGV", "experiment": "Matriptase enzyme inhibition (published assays)", "format": "biochemical"}, "[13]": {"test_system": "VSV-MERS", "experiment": "microbe, parasite or virus in culture", "format": "cell-based, MERS-CoV", "conditions": "Middle East respiratory syndrome-related coronavirus, Calu-3, read-out: MERS VSV pseudotype Calu-3 EC50 (nM)"}},
  "note": "Residues, ends and D or L forms follow the SMILES beside them.",
  "data": [
    {"compound": "CC(=O)N[C@@H](CCC(N)=O)C(=O)N[C@@H](Cc1ccccc1)C(=O)N[C@@H](CCCNC(=N)N)C(=O)c1nc2ccccc2s1", "note": "[Compound 6, Ac-QFR-kbt]", "values": [
      {"measurement": "IC50", "setting": "[1]", "result": 1.4, "unit": "nM"},
      {"measurement": "half-life", "setting": "[2]", "result": "> 4.82", "unit": "h"},
      {"measurement": "IC50", "setting": "[3]", "result": 105, "unit": "nM"},
      {"measurement": "half-life", "setting": "[4]", "result": "> 4.82", "unit": "h"},
      {"measurement": "IC50", "setting": "[5]", "result": "> 20000", "unit": "nM"},
      {"measurement": "IC50", "setting": "[6]", "result": 14, "unit": "nM"}
    ]},
    {"compound": "CC(C)C[C@H](NC(=O)[C@@H](NC(=O)N[C@@H](Cc1ccccc1)C(=O)O)[C@@H]1CCN=C(N)N1)C(=O)N[C@H](C=O)Cc1ccccc1", "note": "[Chymostatin]", "values": [
      {"measurement": "IC50", "setting": "[7]", "result": 10.1, "unit": "nM"},
      {"measurement": "IC50", "setting": "[8]", "result": 4040, "unit": "nM"}
    ]},
    {"compound": "CC(=O)N[C@@H](Cc1c[nH]c2ccccc12)C(=O)N[C@@H](CCC(=O)O)C(=O)N[C@@H](Cc1cnc[nH]1)C(=O)N[C@H](C=O)CC(=O)O", "note": "[WEHD-CHO] (Ac-WEHD-aldehyde)", "values": [
      {"measurement": "IC50", "setting": "[9]", "result": 68.2, "unit": "nM"}
    ]},
    {"compound": "N=C(N)c1ccc2nc(-c3cc(CC(=O)N[C@@H](CC(=O)O)C(=O)O)cc(-c4cc(S(N)(=O)=O)ccc4O)c3O)[nH]c2c1", "note": "[PCI 27483]", "values": [
      {"measurement": "IC50", "setting": "[10]", "result": 57.5, "unit": "nM"}
    ]},
    {"compound": "CN(C)C(=O)COC(=O)Cc1ccc(OC(=O)c2ccc(NC(=N)N)cc2)cc1", "note": "[Camostat, reference compound]", "values": [
      {"measurement": "IC50", "setting": "[1]", "result": "> 20000", "unit": "nM"},
      {"measurement": "EC50", "setting": "[11]", "result": 83, "unit": "nM"},
      {"measurement": "IC50", "setting": "[12]", "result": 7, "unit": "nM"},
      {"measurement": "EC50", "setting": "[13]", "result": 5, "unit": "nM"},
      {"measurement": "IC50", "setting": "[6]", "result": "> 20000", "unit": "nM"}
    ]}
  ]
}
